Laboratory results reported in US20250388565A1, “ESTROGEN RECEPTOR ALPHA DEGRADERS AND METHODS OF USE THEREOF” (Relay Therapeutics, Inc., priority 2022, published 2025).

target: T1, ERα protein (HiBiT-tagged) in ESR1_HiBiT KI MCF7 cells (Homo sapiens, UniProt P03372); experiment: Nano Glo HiBiT Lytic Degradation Assay; format: cell-based; conditions: 6 hours with compound, 14-point dose response 1:3, bell-shape curve fit, half-maximal effect of first Hill model, read-out: MCF7 ESR1 HiBiT - (DC50)
T1 sequence (P03372 1-595): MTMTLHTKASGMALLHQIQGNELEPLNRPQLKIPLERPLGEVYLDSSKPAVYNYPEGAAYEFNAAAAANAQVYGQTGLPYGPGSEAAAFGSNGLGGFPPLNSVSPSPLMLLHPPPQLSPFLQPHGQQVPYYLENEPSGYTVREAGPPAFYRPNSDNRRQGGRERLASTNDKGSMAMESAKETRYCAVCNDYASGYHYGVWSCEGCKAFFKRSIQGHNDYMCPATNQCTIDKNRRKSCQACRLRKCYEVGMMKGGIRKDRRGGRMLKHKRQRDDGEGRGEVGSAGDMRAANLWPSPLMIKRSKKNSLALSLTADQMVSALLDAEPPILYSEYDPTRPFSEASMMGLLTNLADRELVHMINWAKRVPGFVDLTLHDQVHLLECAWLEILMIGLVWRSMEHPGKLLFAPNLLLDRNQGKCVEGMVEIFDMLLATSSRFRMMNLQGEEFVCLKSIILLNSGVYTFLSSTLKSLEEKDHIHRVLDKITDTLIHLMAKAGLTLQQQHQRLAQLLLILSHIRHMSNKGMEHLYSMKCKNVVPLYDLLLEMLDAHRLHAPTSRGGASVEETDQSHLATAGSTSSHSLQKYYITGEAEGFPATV
Description: Selected compounds of the present disclosure were tested in a Nano Glo HiBiT Lytic Degradation Assay to measure the level of ERα protein degradation in MCF7 cells.
Cell culture: ESR1_HiBiT KI MCF7 cells were maintained in growth media without antibiotics. Cells were maintained in exponential growth phase, between 40% and 90% confluency.
Cell seeding: Cells were counted using a Vi-Cell and seeded in a 384-well flat-bottom microplate (cell culture-treated) at 4000 cells/well in 25 μL of growth medium using a BioTek MultiFlo Multimode Dispenser. Plates were incubated for 24 h at 37° C., 5% CO2, >95% relative humidity.
Compound preparation: Compounds were screened as 14-point dose response curves 1:3 dilutions. DMSO is used as the vehicle control and all wells were normalized to the same final DMSO concentration (0.1% v/v). Compounds were dosed using an Echo Acoustic Liquid Handler, 25 nL of 1000× (10 mM top concentration) DMSO stock/well. Cells were incubated with compounds for 6 hours at 37° C., 5% CO2, >95% relative humidity. Each compound was run in duplicate.
Nano Glo HiBiT Lytic Degradation Assay: HiBiT-tagged ERα protein levels were quantified using a Nano Glo HiBiT Lytic Degradation Assay following the manufacturer's protocol. Briefly, the Nano-Glo® HiBiT Lytic Reagent was prepared by diluting the LgBiT Protein reagent (1:100) and the Nano-Glo® HiBiT Lytic Substrate (1:50) into Nano-Glo® HiBiT Lytic Buffer at room temperature. The 384-well microplate were equilibrated to room temperature and 25 μL of Nano-Glo® HiBiT Lytic Reagent was added to each well. Samples were mixed by placing the 384-well microplate on an orbital shaker for 10 minutes. Luminescence was measured using an EnVision 2105 Multimode Plate Reader.
Data processing and analysis: Background signal (wells containing growth medium without cells) was subtracted from individual relative light units (RLU) values and the resulting values were normalized to the DMSO control well values. Dose responses were analyzed with Genedata Screener® using a bell-shape curve fit and the concentrations corresponding to the half-maximal effect of the first Hill model were used as DC50 values.

SMILES | DC50 [nM]
C[C@@H](C1CC1)[C@H]1CC(F)(F)c2cc(O)ccc2[C@H]1c1ccc(N2CCC(CN3CCN(c4ccc5c(c4)CN([C@H]4CCC(=O)NC4=O)C5=O)CC3)CC2)cc1 (single isomer, unassigned) [Compound I-227] | 4
C[C@H](C1CC1)[C@H]1CC(F)(F)c2cc(O)ccc2[C@H]1c1ccc(N2CCC(CN3CCN(c4ccc5c(c4)CN([C@H]4CCC(=O)NC4=O)C5=O)CC3)CC2)cc1 (single isomer, unassigned) [Compound I-228] | 15
O=C1CC[C@H](N2Cc3cc(N4CCN(CC5CCN(c6ccc([C@@H]7c8ccc(O)cc8CO[C@@H]7CC7CC7)cc6)CC5)CC4)ccc3C2=O)C(=O)N1 (single isomer, unassigned) [Compound I-230] | 1
O=C1CC[C@H](N2Cc3cc(N4CCN(CC5CCN(c6ccc([C@H]7c8ccc(O)cc8CO[C@H]7CC7CC7)cc6)CC5)CC4)ccc3C2=O)C(=O)N1 (single isomer, unassigned) [Compound I-231] | ≥ 10000
O=C1CC[C@H](N2Cc3cc(N4CCN(CC5CCN(c6ccc([C@@H]7c8ccc(O)cc8CO[C@@H]7CC7CCCC7)cc6)CC5)CC4)ccc3C2=O)C(=O)N1 (single isomer, unassigned) [Compound I-232] | 0.92
O=C1CC[C@H](N2Cc3cc(N4CCN(CC5CCN(c6ccc([C@H]7c8ccc(O)cc8CO[C@H]7CC7CCCC7)cc6)CC5)CC4)ccc3C2=O)C(=O)N1 (single isomer, unassigned) [Compound I-233] | 31
Cc1cc(N2CCC(CN3CCN(c4ccc5c(c4)CN([C@H]4CCC(=O)NC4=O)C5=O)CC3)CC2)cc(F)c1[C@H]1c2ccc(O)cc2CC[C@H]1C1CCCCC1 (single isomer, unassigned) [Compound I-235] | ≥ 10000
O=C1CC[C@H](N2Cc3cc(N4CCN(CC5CCN(c6ccc([C@@H]7c8ccc(O)cc8CO[C@@H]7C7CC7)cc6)CC5)CC4)ccc3C2=O)C(=O)N1 (single isomer, unassigned) [Compound I-242] | 3300
O=C1CC[C@H](N2Cc3cc(N4CCN(CC5CCN(c6ccc([C@H]7c8ccc(O)cc8CO[C@H]7C7CC7)cc6)CC5)CC4)ccc3C2=O)C(=O)N1 (single isomer, unassigned) [Compound I-243] | 3
C[C@@H]1O[C@H](C2CCCCC2)[C@@H](c2ccc(N3CCC(CN4CCN(c5ccc6c(c5)CN([C@H]5CCC(=O)NC5=O)C6=O)CC4)CC3)cc2)c2ccc(O)cc21 (single isomer, unassigned) [Compound I-252] | 22
C[C@H]1O[C@@H](C2CCCCC2)[C@H](c2ccc(N3CCC(CN4CCN(c5ccc6c(c5)CN([C@H]5CCC(=O)NC5=O)C6=O)CC4)CC3)cc2)c2ccc(O)cc21 (single isomer, unassigned) [Compound I-253] | 0.45
C[C@@H]1O[C@@H](C2CCCCC2)[C@H](c2ccc(N3CCC(CN4CCN(c5ccc6c(c5)CN([C@H]5CCC(=O)NC5=O)C6=O)CC4)CC3)cc2)c2ccc(O)cc21 (single isomer, unassigned) [Compound I-254] | 41
C[C@H]1O[C@H](C2CCCCC2)[C@@H](c2ccc(N3CCC(CN4CCN(c5ccc6c(c5)CN([C@H]5CCC(=O)NC5=O)C6=O)CC4)CC3)cc2)c2ccc(O)cc21 (single isomer, unassigned) [Compound I-255] | 0.87
C[C@@]1(C2CCCCC2)OCc2cc(O)ccc2[C@@H]1c1ccc(N2CCC(CN3CCN(c4ccc5c(c4)CN([C@H]4CCC(=O)NC4=O)C5=O)CC3)CC2)cc1 (single isomer, unassigned) [Compound I-256] | 18
O=C1CC[C@H](N2Cc3cc(N4CCN(CC5CCN(c6ccc([C@H]7c8ccc(O)cc8CC[C@@]78CCCc7ccccc78)cc6)CC5)CC4)ccc3C2=O)C(=O)N1 (single isomer, unassigned) [Compound I-266] | 17
C[C@H]1OC2(CCCCC2)[C@H](c2ccc(N3CCC(CN4CCN(c5ccc6c(c5)CN([C@H]5CCC(=O)NC5=O)C6=O)CC4)CC3)cc2)c2ccc(O)cc21 (single isomer, unassigned) [Compound I-269] | 6
C[C@@H]1OC2(CCCCC2)[C@@H](c2ccc(N3CCC(CN4CCN(c5ccc6c(c5)CN([C@H]5CCC(=O)NC5=O)C6=O)CC4)CC3)cc2)c2ccc(O)cc21 (single isomer, unassigned) [Compound I-270] | ≥ 10000
O=C1CC[C@H](N2Cc3cc(N4CCN(CC5CCN(c6ccc([C@@H]7c8ccc(O)cc8CO[C@]78CCCc7ccccc78)cc6)CC5)CC4)ccc3C2=O)C(=O)N1 (single isomer, unassigned) [Compound I-272] | 4
O=C1CC[C@H](N2Cc3cc(N4CCN(CC5CCN(c6ccc([C@H]7c8ccc(O)cc8CO[C@@]78CCCc7ccccc78)cc6)CC5)CC4)ccc3C2=O)C(=O)N1 (single isomer, unassigned) [Compound I-273] | 6
Cn1c(=O)n([C@H]2CCC(=O)NC2=O)c2ccc(N3CCN(CC4CCN(c5ccc([C@@H]6c7ccc(O)cc7CC[C@@H]6c6ccccc6)cc5)CC4)CC3)cc21 (single isomer, unassigned) [Compound I-275] | 0.25
Cn1c(=O)n([C@@H]2CCC(=O)NC2=O)c2ccc(N3CCN(CC4CCN(c5ccc([C@@H]6c7ccc(O)cc7CC[C@@H]6c6ccccc6)cc5)CC4)CC3)cc21 (single isomer, unassigned) [Compound I-276] | 0.5
Cn1c(=O)n([C@H]2CCC(=O)NC2=O)c2ccc(N3CCN(CC4CCN(c5ccc([C@@H]6c7ccc(O)cc7C(F)(F)C[C@@H]6c6ccccc6)cc5)CC4)CC3)cc21 (single isomer, unassigned) [Compound I-277] | 0.3
Cn1c(=O)n([C@@H]2CCC(=O)NC2=O)c2ccc(N3CCN(CC4CCN(c5ccc([C@@H]6c7ccc(O)cc7C(F)(F)C[C@@H]6c6ccccc6)cc5)CC4)CC3)cc21 (single isomer, unassigned) [Compound I-278] | 12.1
O=C1CCC(c2ccc(N3CC[C@]4(CCN(CC5CCN(c6ccc([C@@H]7c8ccc(O)cc8CC[C@@H]7c7ccccc7)cc6)CC5)C4)C3)cc2)C(=O)N1 (single isomer, unassigned) [Compound I-279] | 16.5
O=C1CCC(c2ccc(N3CC[C@@]4(CCN(CC5CCN(c6ccc([C@@H]7c8ccc(O)cc8CC[C@@H]7c7ccccc7)cc6)CC5)C4)C3)cc2)C(=O)N1 (single isomer, unassigned) [Compound I-280] | 0.76
O=C1CCC(c2ccc(N3CC[C@]4(CCN(CC5CCN(c6ccc([C@@H]7c8ccc(O)cc8C(F)(F)C[C@@H]7c7ccccc7)cc6)CC5)C4)C3)cc2)C(=O)N1 (single isomer, unassigned) [Compound I-281] | 0.51
O=C1CCC(c2ccc(N3CCC4(CCN(CC5CCN(c6ccc([C@@H]7c8ccc(O)cc8C(F)(F)C[C@@H]7c7ccccc7)cc6)CC5)C4)C3)cc2)C(=O)N1 (single isomer, unassigned) [Compound I-282, 3-(4-((R*)-7-((1-(4-((1R,2S)-4,4-difluoro-6-hydroxy-2-phenyl-1,2,3,4-tetrahydronaphthalen-1-yl)phenyl)piperidin-4-yl)methyl)-2,7-diazaspiro[4.4]nonan-2-yl)phenyl)piperidine-2,6-dione] | 24.5
O=C1CC[C@H](c2ccc(N3CCC4(CCN(CC5CCN(c6ccc([C@@H]7c8ccc(O)cc8CC[C@@H]7c7ccccc7)cc6)CC5)C4)CC3)cc2)C(=O)N1 (single isomer, unassigned) [Compound I-283] | 5
